Experiments:
[1] = target: T1, GST-E6/His-E6AP (Human papillomavirus type 16, UniProt P03126); experiment: AlphaScreen bead-based assay, GST-E6/His-E6AP binding; design: species or system HPV 16
T1 construct: made in house
Experimental: (§1) FIGS. 2A-C are graphs providing data regarding inhibition of protein-protein interactions by 3-(1H-indol-1yl)propan-1-amine (1), three benzimidazole derivatives (2-4), and spinacine (5). Compounds, at the indicated concentrations (1.4 μM to 3.2 mM) were tested using a bead-based screening assay for their ability to inhibit three different protein/protein interactions: (FIG. 2A) GST-E6/His-caspase 8; (FIG. 2B) GST-E6/HisE6AP; and (FIG. 2C) GST-caspase 8/His-caspase 8. Binding in the presence of 1.4 μM of the test compound was set at 100%. Experiments were performed in triplicate, and error bars indicate the standard deviation.
To determine the dose-responsiveness of these five compounds, variable concentrations of those small molecules were first tested for their ability to inhibit E6/caspase binding. […] These molecules, which had been selected for their ability to interfere with E6/caspase 8 binding, were then tested to determine if they could also affect other interactions of E6, such as its binding to E6-associated protein (E6AP). The E6/E6AP interaction is required for the E6-mediated acceleration of p53 degradation (Huibregtse, J. M., M. Scheffner, and P. M. Howley, A cellular protein mediates association of p53 with the E6 oncoprotein of human papillomavirus types 16 or 18. The EMBO journal, 1991. 10(13): p. 4129-35).
(§2) Alpha-Screen™ technology was used to assess the interactions between GST-E6, GST-caspase 8, His-E6AP, and His-caspase 8. Binding assays were performed in white 384-well plates (Perkin-Elmer) in a total volume of 25 μl as previously described (Tungteakkhun, S. S., et al., The interaction between human papillomavirus type 16 and FADD is mediated by a novel E6 binding domain. Journal of virology, 2008. 82(19): p. 9600-14). Briefly, 5 μl (50 ng) of GST-E6 and 5 μl (87.5 ng) of His-caspase 8 were included in each reaction mixture with 5 μl blocking buffer (0.5 mg BSA, 0.5% Tween 20 in PBS) in the absence or presence of 10 μM of each test chemical. Members of the library were present at […] in DMSO. After a one-hour incubation of the mixture at room temperature, 5 μl donor beads and 5 μl acceptor beads (Perkin-Elmer) were added to each well according to the manufacturer's protocol. The mixture was incubated in the dark at room temperature overnight, and the emitted signal was detected using the Envision Multilabel plate reader (Perkin-Elmer). In the presence of test chemicals, the binding affinity was calculated as a percentage of the binding in the presence of carrier only (DMSO).

[2] = target: T2, GST-caspase 8/His-caspase 8 (Homo sapiens, UniProt Q14790); experiment: AlphaScreen counter-screen, GST-caspase 8/His-caspase 8 binding; conditions: for EC50 for GST-caspase 8/His-caspase 8 interaction: compounds tested 1.4 μM to 3.2 mM
T2 construct: pTriEx-Caspase-8 DED plasmids; fused on or other part: GST tag on one copy, His tag on the other (AlphaScreen bead handles)
Experimental: as §1
To ask whether this inhibition was specific, a counter-screening assay was employed the ability of candidates to inhibit the binding of GST-caspase 8 to His-caspase 8 was assessed; those that did were to be eliminated. In this counter-screening assay, the materials in each well were the same as in the primary screen, with the exception that GST-caspase 8 replaced GST-E6.
as §2

[3] = test system: SiHa cells; experiment: MTT cell viability, SiHa cells with doxorubicin or cisplatin; format: cell-based, human; conditions: 100 μM myricetin, 50 μM spinacine added 4 h prior; compared to negative control
Experimental: FIGS. 3A-E are graphs providing data regarding resistance of HPV^+ SiHa cells to TRAIL-, cisplatin- and […] apoptosis, in the presence and absence of small molecules as disclosed herein. (FIG. 3A) HPV^+ SiHa cells are resistant to TRAIL-induced apoptosis as compared to the human osteosarcoma cell line U2OS. Cells (2×10^4 cells per well) were seeded into a 96-well plate, allowed to incubate overnight, and then treated with indicated concentration of TRAIL in the presence of cycloheximide (5 μg/ml). The viability of cells was measured after overnight incubation using the MTT assay; the viability of cells untreated with TRAIL was set at 100% for each group. (FIG. 3B) The indicated concentrations of three small molecules were added to SiHa cells, and an MTT assay was preformed after overnight incubation. The viability of cells untreated with small molecules was set as 100%. […] Cell viability was measured after overnight incubation using the MTT assay, and the viability of cells untreated with either myricetin or spinacine was set at 100%. […]
The extracellular domain of human TRAIL was cloned into a pTriEx expression plasmid containing N-terminal Hisx6 tag. […] All experiments were repeated at least three times (three biological replicates, carried out on different days), with each experimental group measured in triplicate within each of these individual experiments. […]

T2 sequence (Q14790 whole entry, the tested form may be a part): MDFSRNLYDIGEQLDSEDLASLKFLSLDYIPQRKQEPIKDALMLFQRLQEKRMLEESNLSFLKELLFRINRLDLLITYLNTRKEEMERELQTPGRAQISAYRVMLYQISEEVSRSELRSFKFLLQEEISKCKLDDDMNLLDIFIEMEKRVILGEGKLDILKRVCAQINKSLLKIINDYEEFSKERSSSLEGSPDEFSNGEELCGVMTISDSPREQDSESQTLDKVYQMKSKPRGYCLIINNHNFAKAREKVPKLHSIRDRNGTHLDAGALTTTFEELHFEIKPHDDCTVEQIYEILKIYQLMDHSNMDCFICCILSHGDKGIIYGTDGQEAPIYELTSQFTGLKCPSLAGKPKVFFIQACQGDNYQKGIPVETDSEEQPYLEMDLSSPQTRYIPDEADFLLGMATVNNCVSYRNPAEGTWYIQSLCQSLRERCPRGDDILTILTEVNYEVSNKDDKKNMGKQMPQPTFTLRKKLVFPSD
T1 sequence (P03126 whole entry): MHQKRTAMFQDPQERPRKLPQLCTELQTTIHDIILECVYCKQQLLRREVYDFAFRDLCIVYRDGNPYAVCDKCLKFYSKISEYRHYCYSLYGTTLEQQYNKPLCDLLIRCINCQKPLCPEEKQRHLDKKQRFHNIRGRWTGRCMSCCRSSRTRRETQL

| Compound | EC50 for GST-E6/His-E6AP interaction ([1]; bead-based assay, compounds tested 1.4 μM to 3.2 mM) | EC50 for GST-caspase 8/His-caspase 8 interaction [2] | inhibition of E6/E6AP interaction (in words) ([1]; FIG. 2B) | inhibition of caspase 8/caspase 8 interaction (in words) ([2]; FIG. 2C) | sensitivity of SiHa cells to doxorubicin and cisplatin (in words) [3] |
| --- | --- | --- | --- | --- | --- |
| OCn1cnc2ccccc21 [Compound 3, 1H-benzimidazole-1-methanol] | No Inhibition | No Inhibition |  |  |  |
| O=C(O)C1Cc2[nH]cnc2CN1 (stereo not shown) [Compound 5, 4,5,6,7-Tetrahydro-1H-imidazo(4,5-c)pyridine-6-carboxylic acid] |  | No | could also inhibit the E6/E6AP interaction | did not significantly inhibit | increased the sensitivity |
| O=c1c(O)c(-c2cc(O)c(O)c(O)c2)oc2cc(O)cc(O)c12 [Myricetin, reference compound] |  |  |  |  | increased the sensitivity |

— patent US20180200233A1, “COMPOSITIONS FOR PREVENTING CANCERS ASSOCIATED WITH HUMAN PAPILLOMA VIRUSES” (Loma Linda University, priority 2015, published 2018)
